From article PMC5958743, “A Novel Catecholopyrimidine Based Small Molecule PDE4B Inhibitor Suppresses Inflammatory Cytokines in Atopic Mice” (Frontiers in Pharmacology, 2018)

Tests used:
DNCB-induced NC/Nga mice [1] = experiment: DNCB-induced atopic dermatitis model, serum IgE and cytokines by ELISA; assay type: in vivo, mouse; details: for serum IL-4 level / serum IL-5 level: topical 1% compound 1 (p < 0.05) or 0.3% compound 2 (p < 0.01); for serum IL-4 level / serum IL-5 level / serum IL-17 level: vs DNCB alone; for serum IL-17 level: topical 1% compound 1 (p < 0.5) or 0.3% compound 2 (p < 0.01); for serum IFN-γ level (reduced by DNCB): topical 1% compound 1 or 0.3% compound 2; for serum IgE level: topical 1% compound 1 or 0.3% compound 2, p < 0.01 vs DNCB
Procedure: (§1) Male NC/Nga mice, 7-weeks-old, were purchased from Central Lab Animal Inc., South Korea. All mice were housed in specific pathogen-free conditions at the animal facility center of the College of Pharmacy at Seoul National University (Seoul, Korea), and were maintained at 24 – 26°C with a 12 h light and dark cycle. Animal experiments were conducted in accordance with protocols approved by the Institutional Animal Care and Use Committee of Seoul National University.
(§2) NC/Nga mice were classified into six groups (n = 6): (1) vehicle alone, acetone-olive oil (Sigma-Aldrich, St. Louis, MO, United States) in a ratio of 3:1 was used as a vehicle; (2) 1% of compound-1 with vehicle alone; (3) 0.3% of compound-2 with vehicle alone; (4) DNCB+vehicle; (5) DNCB + 1% of compound-1 mixed with vehicle; and (6) DNCB + 0.3% of compound-2 mixed with vehicle. DNCB (Sigma-Aldrich, St. Louis, MO, United States) was used to induce AD on the dorsal skin of the mice. Compound 1 and 2 were dissolved in 150 μl of vehicle and topically applied on the atopic tissue. Hair on the backs of the mice were removed using an electric clipper. Two days later, 150 μl of 1% DNCB was dissolved in the vehicle and applied on the dorsal skin twice with an interval period of 4 days. Afterward, 150 μl of 0.2% DNCB dissolved in the vehicle was applied to challenge the dorsal skin twice-a-week for 5 weeks. AD-induced mice were co-treated with either compound-1 or compound-2 once daily from day six onward until the end of the experiments.
On the final day of the experimental scheme, blood samples were collected from the experimental animals. Serum was isolated and stored at -80°C along with protease inhibitor cocktail for later use (Thermo Fisher Scientific, United States). Serum IL-4, IL-5, IL-17, IFN-γ, and IgE levels were measured according to the manufacturer’s instructions (Biolegend, San Diego, CA, United States; IL-4-431101; IL-17-432501; IL-5-431204; IFN-γ- 430801; IgE-432401; TNF-α- 430901). Serum samples were diluted five-fold for the cytokine assay. 10,000-fold diluted serum samples were utilized for the IgE assay. Absorbance was measured immediately at 492 nm using a multiplate reader (Molecular Devices Spectramax M5, Sunnyvale, CA, United States).

PDE7 = target: T1, PDE7 (Homo sapiens, UniProt Q13946); experiment: PDE enzyme inhibitor assay (LANCE Ultra cAMP), PDE7; assay type: biochemical; details: 0.1 ng/well enzyme, 3 nM cAMP, 37°C 1 h
T1 construct: purchased BPS Biosciences
Procedure: (§3) The enzyme inhibition assay was performed against human PDE enzymes (PDE1A, PDE3A, PDE4A, PDE4B, PDE4C, PDE4D, and PDE7A; BPS Biosciences, San Diego, CA, United States) according to the manufacturer’s instructions (LANCE Ultra cAMP assay kit; Perkin Elmer, United States). In each well, 5 μl of 3 nM cAMP, 2.5 μl of PDE enzyme (0.1 ng/well), and 2.5 μl of inhibitor solution were added, and incubated at 37°C for 1 h. After incubation, 5 μL each of Eu-cAMP and ULight-anti-cAMP detection reagent supplemented with 1 mM of IBMX were added. The reaction mixture was incubated at 37°C for 1 h. After incubation, emission signals were collected at 665 nm using EnVision Multilable Reader (Perkin Elmer, United States).

PDE4A4 = target: T2, PDE4A4 (Homo sapiens, UniProt P27815); experiment: PDE enzyme inhibitor assay (LANCE Ultra cAMP), PDE4A; assay type: biochemical; details: 0.1 ng/well enzyme, 3 nM cAMP, 37°C 1 h
T2 construct: purchased BPS Biosciences
Procedure: as §3

PDE3B = PDE3B (Homo sapiens, UniProt Q13370); experiment: PDE enzyme inhibitor assay (LANCE Ultra cAMP), PDE3B; assay type: biochemical; details: 0.1 ng/well enzyme, 3 nM cAMP, 37°C 1 h
PDE4D7 = target: T3, PDE4D7 (Homo sapiens, UniProt Q08499); experiment: PDE enzyme inhibitor assay (LANCE Ultra cAMP), PDE4D; assay type: biochemical; details: for IC50: 0.1 ng/well enzyme, 3 nM cAMP, 37°C 1 h
T3 construct: purchased BPS Biosciences
Procedure: as §3

PDE1A = target: T4, PDE1A (Homo sapiens, UniProt P54750); experiment: PDE enzyme inhibitor assay (LANCE Ultra cAMP), PDE1A; assay type: biochemical; details: 0.1 ng/well enzyme, 3 nM cAMP, 37°C 1 h
T4 construct: purchased BPS Biosciences
Procedure: as §3

Raw 264.7 cells [2] = experiment: Intracellular cAMP in LPS-stimulated macrophage cell line (ELISA); assay type: cell-based; details: 30 nM compound 1 or 15 nM compound 2 for 1 h, then 1 μM LPS 30 min
Procedure: (§4) The macrophage cell line, Raw 264.7 was maintained for 24 h in serum free DMEM medium. Then, cells were incubated with 30 nM of compound 1 and 15 nM of compound 2 for 1 h. After incubation, 1 μM of LPS (Sigma-Aldrich, United States) was added and incubated for 30 min at 37°C in a humidified 5% CO2 atmosphere. Finally, cells were lysed and supernatants were harvested. Intracellular cAMP levels were measured using the cAMP ELISA kit according to the manufacturer’s instruction (ADI-900-066; Enzo Life Sciences, United States). Similarly, TNFα level was assayed by ELISA analysis according to the manufacturer’s protocol (LEGEND MAX^TM Human TNF-α ELISA Kit, San Diego, CA, United States). Concentration is expressed in pg/mL.

DNCB-induced NC/Nga mice [3] = experiment: DNCB-induced atopic dermatitis model, histopathology and immunohistochemistry of dorsal skin; assay type: in vivo, mouse; details: for mast cell infiltration in the epidermis region (toluidine blue), number of mast cells: topical 1% compound 1 or 0.3% compound 2, DNCB alone 97 ± 10.58, control 13 ± 2; for CD4+ cells in the skin (immunohistochemistry) / epidermal thickening (H&E) / infiltration of inflammatory cells into epidermis and dermis (H&E): topical 1% compound 1 or 0.3% compound 2, vs DNCB alone
Procedure: as §1, §2
Skin samples collected from the experimental mice were fixed by using 10% neutral buffered formalin, and embedded in paraffin. 4-μm thin tissue sections were prepared and stained with hematoxylin and eosin (H&E; Sigma-Aldrich, United States). To investigate the mast cell infiltration, sections were stained with toluidine blue (Sigma-Aldrich, United States). For immunohistochemical analysis, tissue sections were microwaved in sodium citrate buffer for 10 min to retrieve the antigen/epitope. After incubating with 0.1% triton X-100 containing phosphate buffered saline (PBS), sections were blocked with 10% FBS. Then, sections were incubated overnight with primary antibodies specific for IL-4, 5, 17, IFN-γ, and CD4, respectively (Santa Cruz Biotechnology, Santa Cruz, CA, United States). After treatment with 0.3% H2O2 in 0.1 M PBS for 15 min, sections were incubated with HRP-conjugated secondary antibodies specific for IL-4, 5, 17, IFN-γ, and CD4 for 1 h at room temperature. Diaminobenzidine was used to detect peroxidase activity, which was photographed using an Olympus AX70 light microscope (Tokyo, Japan).

DNCB-induced NC/Nga mice [4] = experiment: DNCB-induced atopic dermatitis model, evaluation of skin lesion and organs; assay type: in vivo, mouse; details: for dorsal skin thickness / spleen weight / subiliac lymph node size / subiliac lymph node weight / week after which significant reduction in dermatitis score was observed / scratching frequency (DNCB-induced itching sensation) / dermatitis score / AD-like skin features (erythema, hemorrhage, dry skin): DNCB-induced mice; for dorsal skin thickness: end of experiment, DNCB alone 1.19 mm, control 0.45 mm; for dorsal skin thickness / spleen weight / subiliac lymph node size / subiliac lymph node weight: topical 1% compound 1 or 0.3% compound 2; for spleen weight / subiliac lymph node size / subiliac lymph node weight / AD-like skin features (erythema, hemorrhage, dry skin): vs DNCB alone; for week after which significant reduction in dermatitis score was observed / scratching frequency (DNCB-induced itching sensation) / dermatitis score / AD-like skin features (erythema, hemorrhage, dry skin): topical once daily, 1% compound 1 or 0.3% compound 2; for scratching frequency (DNCB-induced itching sensation): measured once-a-week for 5 weeks; for dermatitis score: p < 0.01 vs DNCB; for skin feature of compound alone treated mice: no DNCB, topical 1% compound 1 or 0.3% compound 2 with vehicle alone
Procedure: as §1, §2
Dermatitis score was measured according to a previously established method, once-a-week for 5 weeks ([Matsuda et al., 1997]). Skin features of dermatitis, such as erythema/hemorrhage, edema, excoriation/erosion, and scaling/dryness were considered in the evaluation. Each symptom was scored as follows: 0 (none); 1 (mild); 2 (moderate); and 3 (severe). The sum of all the scores was defined as the dermatitis score of individual mice, which ranged between 0 and 12. In addition, the scratching behavior of the experimental animals was measured once-a-week for 5 weeks. Specifically, we measured the frequency with which the mice rubbed their dorsal skin, hind paws, nose, and ears for 10 min.

PDE4B1 = target: T5, PDE4B1 (Homo sapiens, UniProt Q07343); experiment: PDE enzyme inhibitor assay (LANCE Ultra cAMP), PDE4B; assay type: biochemical; details: for IC50: 0.1 ng/well enzyme, 3 nM cAMP, 37°C 1 h; for specificity against PDE4B compared to other PDE enzymes: versus PDE1A, PDE3B, PDE4A, PDE4C, PDE4D, PDE7
T5 construct: purchased BPS Biosciences

Raw 264.7 cells [5] = experiment: LPS-induced TNF-α in macrophage cell line (ELISA); assay type: cell-based; details: 30 nM compound 1 or 15 nM compound 2, 1 μM LPS 30 min
Procedure: as §4

PDE4C1 = target: T6, PDE4C1 (Homo sapiens, UniProt Q08493); experiment: PDE enzyme inhibitor assay (LANCE Ultra cAMP), PDE4C; assay type: biochemical; details: 0.1 ng/well enzyme, 3 nM cAMP, 37°C 1 h
T6 construct: purchased BPS Biosciences
Procedure: as §3

T3 sequence (Q08499 1-748 isoform Q08499-11): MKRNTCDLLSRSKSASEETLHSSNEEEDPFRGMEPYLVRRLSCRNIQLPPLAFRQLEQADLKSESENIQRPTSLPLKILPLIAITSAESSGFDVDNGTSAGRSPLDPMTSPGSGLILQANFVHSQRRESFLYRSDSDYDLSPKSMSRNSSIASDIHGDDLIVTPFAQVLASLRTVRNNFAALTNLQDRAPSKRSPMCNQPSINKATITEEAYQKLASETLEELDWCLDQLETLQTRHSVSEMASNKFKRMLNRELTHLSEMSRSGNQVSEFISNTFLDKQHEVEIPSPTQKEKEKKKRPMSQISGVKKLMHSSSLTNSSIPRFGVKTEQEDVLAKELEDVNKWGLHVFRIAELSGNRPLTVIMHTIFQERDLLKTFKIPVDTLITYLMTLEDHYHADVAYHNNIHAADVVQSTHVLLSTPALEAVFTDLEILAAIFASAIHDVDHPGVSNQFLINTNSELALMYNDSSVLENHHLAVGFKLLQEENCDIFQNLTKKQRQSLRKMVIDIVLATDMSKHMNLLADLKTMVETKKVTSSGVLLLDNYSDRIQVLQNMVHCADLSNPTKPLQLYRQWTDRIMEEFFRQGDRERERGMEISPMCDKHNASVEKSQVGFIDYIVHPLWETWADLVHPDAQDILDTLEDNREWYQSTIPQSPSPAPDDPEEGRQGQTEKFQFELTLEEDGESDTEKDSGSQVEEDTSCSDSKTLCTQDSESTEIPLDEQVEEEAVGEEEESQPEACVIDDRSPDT
T5 sequence (Q07343 whole entry): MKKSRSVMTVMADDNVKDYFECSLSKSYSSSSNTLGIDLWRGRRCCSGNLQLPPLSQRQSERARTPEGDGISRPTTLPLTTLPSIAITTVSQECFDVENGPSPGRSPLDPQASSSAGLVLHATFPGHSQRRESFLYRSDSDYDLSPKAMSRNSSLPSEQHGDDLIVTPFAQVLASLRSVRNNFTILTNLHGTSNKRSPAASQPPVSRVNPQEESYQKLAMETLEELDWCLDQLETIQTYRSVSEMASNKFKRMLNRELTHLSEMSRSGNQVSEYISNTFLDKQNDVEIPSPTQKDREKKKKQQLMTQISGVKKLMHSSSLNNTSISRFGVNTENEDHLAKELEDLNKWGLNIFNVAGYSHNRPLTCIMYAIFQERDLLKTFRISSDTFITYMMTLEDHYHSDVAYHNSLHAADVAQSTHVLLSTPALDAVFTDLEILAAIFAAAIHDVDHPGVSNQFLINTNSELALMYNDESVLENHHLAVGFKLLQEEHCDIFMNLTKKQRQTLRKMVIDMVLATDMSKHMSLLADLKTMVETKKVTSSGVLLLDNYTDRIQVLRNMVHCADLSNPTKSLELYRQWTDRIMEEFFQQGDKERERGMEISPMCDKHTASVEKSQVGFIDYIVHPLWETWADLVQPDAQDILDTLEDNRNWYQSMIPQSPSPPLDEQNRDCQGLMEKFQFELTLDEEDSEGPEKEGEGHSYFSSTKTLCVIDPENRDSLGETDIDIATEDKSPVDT
T6 sequence (Q08493 whole entry): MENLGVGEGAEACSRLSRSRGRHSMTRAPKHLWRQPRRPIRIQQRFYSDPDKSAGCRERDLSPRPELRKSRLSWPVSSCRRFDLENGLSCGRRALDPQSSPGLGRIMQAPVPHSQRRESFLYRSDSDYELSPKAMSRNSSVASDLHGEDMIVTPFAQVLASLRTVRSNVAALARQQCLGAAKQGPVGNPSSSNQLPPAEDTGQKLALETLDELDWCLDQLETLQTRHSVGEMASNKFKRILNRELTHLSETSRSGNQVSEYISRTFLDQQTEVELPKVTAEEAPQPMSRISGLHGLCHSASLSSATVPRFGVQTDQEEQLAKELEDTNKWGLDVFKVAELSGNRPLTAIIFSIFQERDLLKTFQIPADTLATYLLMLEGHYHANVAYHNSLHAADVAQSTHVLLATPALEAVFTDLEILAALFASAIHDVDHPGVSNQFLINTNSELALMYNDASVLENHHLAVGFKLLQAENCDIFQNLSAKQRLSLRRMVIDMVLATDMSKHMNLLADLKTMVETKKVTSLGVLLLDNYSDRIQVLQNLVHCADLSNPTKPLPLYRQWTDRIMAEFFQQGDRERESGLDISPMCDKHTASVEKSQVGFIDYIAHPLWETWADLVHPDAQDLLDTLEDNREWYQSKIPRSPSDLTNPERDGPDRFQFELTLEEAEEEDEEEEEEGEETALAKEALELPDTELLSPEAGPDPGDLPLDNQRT
Chain of PDE3B (Q13370 whole entry): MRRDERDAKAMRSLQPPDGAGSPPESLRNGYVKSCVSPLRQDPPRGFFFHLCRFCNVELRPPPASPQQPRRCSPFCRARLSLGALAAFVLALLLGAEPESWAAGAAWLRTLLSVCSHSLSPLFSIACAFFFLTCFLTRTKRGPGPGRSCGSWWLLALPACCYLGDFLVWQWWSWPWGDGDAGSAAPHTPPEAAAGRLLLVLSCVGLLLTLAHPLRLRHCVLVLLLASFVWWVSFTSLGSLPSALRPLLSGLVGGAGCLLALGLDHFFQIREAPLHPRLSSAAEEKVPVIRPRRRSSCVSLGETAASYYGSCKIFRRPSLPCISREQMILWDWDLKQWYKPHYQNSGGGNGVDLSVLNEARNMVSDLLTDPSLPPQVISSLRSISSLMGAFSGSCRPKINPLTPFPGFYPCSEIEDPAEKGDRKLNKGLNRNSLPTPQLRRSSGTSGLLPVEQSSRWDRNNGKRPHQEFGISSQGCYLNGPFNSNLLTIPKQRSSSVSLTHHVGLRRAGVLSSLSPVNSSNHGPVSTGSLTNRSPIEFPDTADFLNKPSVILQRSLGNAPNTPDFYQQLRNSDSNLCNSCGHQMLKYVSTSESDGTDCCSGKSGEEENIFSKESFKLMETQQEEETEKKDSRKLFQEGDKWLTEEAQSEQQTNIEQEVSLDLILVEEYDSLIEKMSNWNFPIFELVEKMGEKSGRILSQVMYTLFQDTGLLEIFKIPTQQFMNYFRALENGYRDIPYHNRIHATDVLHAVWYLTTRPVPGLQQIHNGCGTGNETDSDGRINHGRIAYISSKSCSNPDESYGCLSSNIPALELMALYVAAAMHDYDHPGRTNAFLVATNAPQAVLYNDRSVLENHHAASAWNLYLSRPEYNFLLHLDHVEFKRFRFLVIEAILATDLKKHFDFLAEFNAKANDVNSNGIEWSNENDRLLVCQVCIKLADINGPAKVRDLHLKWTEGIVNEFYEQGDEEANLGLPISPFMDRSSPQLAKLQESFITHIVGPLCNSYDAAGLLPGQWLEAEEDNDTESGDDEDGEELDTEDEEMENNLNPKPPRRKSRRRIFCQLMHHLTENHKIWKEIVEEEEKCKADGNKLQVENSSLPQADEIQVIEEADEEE
T2 sequence (P27815 whole entry): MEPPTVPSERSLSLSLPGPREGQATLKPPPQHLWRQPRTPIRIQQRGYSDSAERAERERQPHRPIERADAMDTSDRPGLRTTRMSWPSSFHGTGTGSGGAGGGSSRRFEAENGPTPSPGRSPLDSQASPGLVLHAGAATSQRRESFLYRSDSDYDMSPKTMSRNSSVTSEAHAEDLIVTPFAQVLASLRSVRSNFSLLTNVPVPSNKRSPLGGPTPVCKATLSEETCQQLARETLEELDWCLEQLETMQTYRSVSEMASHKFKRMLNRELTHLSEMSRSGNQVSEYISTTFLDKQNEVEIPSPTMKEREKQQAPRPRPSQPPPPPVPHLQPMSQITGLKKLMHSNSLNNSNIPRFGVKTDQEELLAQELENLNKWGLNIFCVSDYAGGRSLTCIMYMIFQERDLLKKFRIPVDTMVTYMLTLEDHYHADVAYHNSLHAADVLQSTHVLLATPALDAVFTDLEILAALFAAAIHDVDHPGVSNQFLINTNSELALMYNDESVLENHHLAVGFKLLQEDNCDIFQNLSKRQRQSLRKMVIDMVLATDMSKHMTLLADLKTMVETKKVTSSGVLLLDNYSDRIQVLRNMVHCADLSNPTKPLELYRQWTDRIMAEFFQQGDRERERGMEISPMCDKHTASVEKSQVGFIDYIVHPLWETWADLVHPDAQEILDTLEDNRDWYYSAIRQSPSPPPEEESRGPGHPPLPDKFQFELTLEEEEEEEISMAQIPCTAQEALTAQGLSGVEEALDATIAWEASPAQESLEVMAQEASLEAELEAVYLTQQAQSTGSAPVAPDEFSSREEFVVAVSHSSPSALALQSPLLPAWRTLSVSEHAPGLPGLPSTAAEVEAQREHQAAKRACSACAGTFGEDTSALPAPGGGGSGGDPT
T1 sequence (Q13946 whole entry): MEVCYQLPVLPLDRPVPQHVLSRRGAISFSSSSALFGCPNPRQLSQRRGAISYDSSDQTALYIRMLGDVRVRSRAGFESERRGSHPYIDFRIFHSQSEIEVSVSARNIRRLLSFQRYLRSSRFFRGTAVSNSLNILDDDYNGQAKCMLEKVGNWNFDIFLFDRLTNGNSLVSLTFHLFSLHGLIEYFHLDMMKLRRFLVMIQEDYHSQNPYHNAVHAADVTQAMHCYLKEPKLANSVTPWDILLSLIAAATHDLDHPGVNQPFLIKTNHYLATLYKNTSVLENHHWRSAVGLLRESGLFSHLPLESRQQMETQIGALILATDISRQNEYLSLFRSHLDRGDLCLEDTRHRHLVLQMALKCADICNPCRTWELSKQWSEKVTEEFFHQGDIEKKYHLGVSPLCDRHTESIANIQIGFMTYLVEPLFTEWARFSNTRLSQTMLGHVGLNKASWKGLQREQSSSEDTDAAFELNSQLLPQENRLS

Row | IC50 (PDE7) | IC50 (PDE4A4) | IC50 (PDE3B) | IC50 (PDE4D7) | IC50 (PDE1A) | SMILES | serum IL-4 level (DNCB-induced NC/Nga mice [1]) | serum IL-5 level (DNCB-induced NC/Nga mice [1]) | serum IL-17 level (DNCB-induced NC/Nga mice [1]) | serum IFN-γ level (reduced by DNCB) (DNCB-induced NC/Nga mice [1]) | serum IgE level (DNCB-induced NC/Nga mice [1]) | intracellular levels of cAMP (Raw 264.7 cells [2]) | mast cell infiltration in the epidermis region (toluidine blue), number of mast cells (DNCB-induced NC/Nga mice [3]) | CD4+ cells in the skin (immunohistochemistry) (DNCB-induced NC/Nga mice [3]) | epidermal thickening (H&E) (DNCB-induced NC/Nga mice [3]) | infiltration of inflammatory cells into epidermis and dermis (H&E) (DNCB-induced NC/Nga mice [3]) | dorsal skin thickness (DNCB-induced NC/Nga mice [4]) | spleen weight (DNCB-induced NC/Nga mice [4]) | subiliac lymph node size (DNCB-induced NC/Nga mice [4]) | subiliac lymph node weight (DNCB-induced NC/Nga mice [4]) | week after which significant reduction in dermatitis score was observed (DNCB-induced NC/Nga mice [4]) | further results
1 | 389 ± 26.3 nM | 45 ± 3.54 nM | 800 ± 45.8 nM | 220 ± 16.3 nM | 756 ± 59 nM | COc1ccc(NC(=O)c2cnc(SC)nc2N2CCOCC2)cc1OC [compound 1, N-(3,4-dimethoxyphenyl)-2-(methylthio)-4-morpholinopyrimidine-5-carboxamide] | significantly reversed | significantly reversed | reduced level | significantly reversed | significantly reduced | significantly improved | 56 ± 11 per 350 μm^2 | reduced levels of CD4+ cells | reduced epidermal thickening | reduced levels of inflammatory cells | 0.78 mm | significantly reduced | drastically reduced | drastically reduced | third | scratching frequency (DNCB-induced itching sensation) (DNCB-induced NC/Nga mice [4]): significantly (p < 0.01) inhibited; dermatitis score (DNCB-induced NC/Nga mice [4]): significant reduction; AD-like skin features (erythema, hemorrhage, dry skin) (DNCB-induced NC/Nga mice [4]): reduced levels of erythema and hemorrhage and dry skin; skin feature of compound alone treated mice (DNCB-induced NC/Nga mice [4]): normal skin feature, no sign of allergy was observed; IC50 (PDE4B1): 31 ± 7.17 nM; specificity against PDE4B compared to other PDE enzymes (PDE4B1): not exclusive to PDE4B alone; LPS-induced TNF-α synthesis (Raw 264.7 cells [5]): effectively inhibited; IC50 (PDE4C1): 77 ± 8.8 nM
2 | 250 ± 14.6 nM | 152 ± 1.33 nM | 169 ± 3.78 nM | 108 ± 3.78 nM | 98 ± 8.45 nM | COc1ccc(-c2nc(C(F)(F)F)ncc2C(=O)Nc2ccncc2)cc1OC [compound 2, 4-(3,4-dimethoxyphenyl)-N-(pyridin-4-yl)-2-(trifluoromethyl)pyrimidine-5-carboxamide] | significantly reversed | significantly reversed | reduced level | significantly reversed | significantly reduced | significantly improved | 29.41 ± 6 per 350 μm^2 | reduced levels of CD4+ cells | reduced epidermal thickening | reduced levels of inflammatory cells | 0.64 mm | significantly reduced | drastically reduced | drastically reduced | second | concentration required to inhibit PDE4D relative to PDE4B (PDE4D7; PDE4D versus PDE4B): nearly sevenfold higher concentration; scratching frequency (DNCB-induced itching sensation) (DNCB-induced NC/Nga mice [4]): significantly (p < 0.01) inhibited; dermatitis score (DNCB-induced NC/Nga mice [4]): significant reduction; AD-like skin features (erythema, hemorrhage, dry skin) (DNCB-induced NC/Nga mice [4]): reduced levels of erythema and hemorrhage and dry skin; skin feature of compound alone treated mice (DNCB-induced NC/Nga mice [4]): normal skin feature, no sign of allergy was observed; IC50 (PDE4B1): 15 ± 0.4 nM; specificity against PDE4B compared to other PDE enzymes (PDE4B1): high specificity against PDE4B; LPS-induced TNF-α synthesis (Raw 264.7 cells [5]): effectively inhibited; IC50 (PDE4C1): 57 ± 4.87 nM
